# Molecular target: T1, Sex hormone-binding globulin (Homo sapiens) (UniProt P04278)
# T1 sequence (whole entry): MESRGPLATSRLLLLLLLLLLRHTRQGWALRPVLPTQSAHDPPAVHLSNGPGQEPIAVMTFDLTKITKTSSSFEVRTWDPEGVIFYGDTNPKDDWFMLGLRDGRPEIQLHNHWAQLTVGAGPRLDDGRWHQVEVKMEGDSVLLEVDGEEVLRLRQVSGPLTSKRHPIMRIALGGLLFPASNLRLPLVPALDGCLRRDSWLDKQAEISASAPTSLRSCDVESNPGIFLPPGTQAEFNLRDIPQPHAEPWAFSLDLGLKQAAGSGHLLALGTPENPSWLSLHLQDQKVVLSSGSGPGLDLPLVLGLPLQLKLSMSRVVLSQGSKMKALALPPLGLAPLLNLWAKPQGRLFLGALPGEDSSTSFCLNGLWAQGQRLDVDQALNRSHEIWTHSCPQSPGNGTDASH
# Assay: In vitro relative binding affinity against hSHBG (human sex hormone binding globulin)
row,Structure (SMILES),relative binding affinity (RBA)
1,C[C@]1(O)CC[C@H]2[C@@H]3CCC4=CC(=O)CCC4=C3C=C[C@@]21C [METRIBOLONE],0.2
2,CCOC(=O)C(/C=N/c1cccc(-c2cc(C)nc(C)c2)c1)=C(\O)OCC,< 0.01
3,Cc1cc(-c2cc([N+](=O)[O-])ccc2F)cc(C)n1,< 0.01
4,Cc1cc(-c2cc(N)ccc2F)cc(C)n1,< 0.01
5,Cc1cc2c(c(C)n1)c(=O)oc1ccccc12,< 0.01
6,CCOC(=O)C(/C=N/c1ccc(F)c(-c2cc(C)nc(C)c2)c1)=C(/O)OCC,< 0.01
7,Cc1cc(-c2ccccc2F)cc(C)n1,< 0.01

# Molecular target: T2, Sex hormone-binding globulin (Rattus norvegicus, UniProt P08689)
# T2 sequence (P08689 whole entry): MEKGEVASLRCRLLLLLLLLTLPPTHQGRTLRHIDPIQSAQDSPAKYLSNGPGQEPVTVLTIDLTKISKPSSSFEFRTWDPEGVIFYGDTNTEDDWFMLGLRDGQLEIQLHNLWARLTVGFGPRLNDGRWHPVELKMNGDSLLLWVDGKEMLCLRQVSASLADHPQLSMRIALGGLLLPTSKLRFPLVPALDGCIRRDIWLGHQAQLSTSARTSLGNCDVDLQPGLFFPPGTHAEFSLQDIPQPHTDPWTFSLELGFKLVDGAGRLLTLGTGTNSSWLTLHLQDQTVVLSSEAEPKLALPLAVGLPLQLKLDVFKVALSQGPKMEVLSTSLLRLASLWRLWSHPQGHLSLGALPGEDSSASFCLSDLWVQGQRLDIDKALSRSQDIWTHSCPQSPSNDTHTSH
# Assay: Inhibition of rat androgen binding protein (rABP) (n=9)
row,Structure (SMILES),IC50 [nM]
1,C[C@]1(O)CC[C@H]2[C@@H]3CCC4=CC(=O)CCC4=C3C=C[C@@]21C [METRIBOLONE],3.7

# Source: ChEMBL document CHEMBL1124923, “A novel, nonsteroidal inhibitor of androgen binding to the rat androgen binding protein: diethyl [[[3-(2,6-dimethyl-4-pyridinyl)-4-fluorophenyl]amino]methylene] propanedioate” (J Med Chem, 1990)
